Starred links: 1 amine or outer side, 2 acyl side, 3 side chain; linkers in the order of their positions; H or OH if unused. Non-standard residues stand in square brackets, D forms with d. Residues, ends and D or L forms follow the SMILES beside them. Groups on a side chain read outwards from the residue. *: point of attachment. C18 diacid = O=C(O)CCCCCCCCCCCCCCCCC(=O)*; γGlu = O=C(O)[C@H](CCC(=O)[*:2])N[*:1]; αMeF = C[C@](N)(Cc1ccccc1)C(=O)O; AEEA = NCCOCCOCC(=O)O; Aib = CC(C)(N)C(=O)O
Legend:
[1] = biological target: human glucagon receptor (hGCGR) (Homo sapiens, UniProt P47871); assay: cAMP production (HTRF) in CHO cells expressing hGCGR; assay type: cell-based; set-up: expressed in transfected cells; details: Table 6, peptides modified at position 17; cAMP in CHO hGCGR cells; geometric mean; read-out: hGluc-R EC50
Method in brief: (§1)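 Potency values represent EC50 from 4-parameter logistic curves of HTRF % Delta F signal. Receptor-expressing CHO cells (hGCGR 2×10^5 cells/mL, hGLP-1R 1×10^5 cells/mL) were exposed for 30 min at room temperature before two-step cAMP detection.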

[2] = biological target: human GLP-1 receptor (hGLP-1R) (Homo sapiens, UniProt P43220); assay: cAMP production (HTRF) in CHO cells expressing hGLP-1R; assay type: cell-based; set-up: expressed in transfected cells; details: for EC50: Table 6, peptides modified at position 17, cAMP in CHO hGLP-1R cells, geometric mean, read-out: hGLP-1R EC50; for % Relative Potency Ratio: Table 6, % GLP-1R activity relative to GLP-1 / % GlucR activity relative to glucagon
Method in brief: as §1

Chain of human GLP-1 receptor (hGLP-1R) (P43220 24-463): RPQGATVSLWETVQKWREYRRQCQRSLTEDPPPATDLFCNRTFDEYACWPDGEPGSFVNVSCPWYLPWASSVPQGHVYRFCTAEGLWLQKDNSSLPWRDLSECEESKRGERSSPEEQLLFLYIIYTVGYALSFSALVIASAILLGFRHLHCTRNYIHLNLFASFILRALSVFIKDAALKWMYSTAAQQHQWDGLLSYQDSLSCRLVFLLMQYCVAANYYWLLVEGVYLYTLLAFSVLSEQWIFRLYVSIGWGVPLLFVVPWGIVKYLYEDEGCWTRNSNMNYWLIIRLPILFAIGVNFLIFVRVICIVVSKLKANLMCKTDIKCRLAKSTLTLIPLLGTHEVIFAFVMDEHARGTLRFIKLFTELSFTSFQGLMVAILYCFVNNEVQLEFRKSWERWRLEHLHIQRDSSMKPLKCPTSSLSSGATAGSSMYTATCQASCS
Chain of human glucagon receptor (hGCGR) (P47871 26-477): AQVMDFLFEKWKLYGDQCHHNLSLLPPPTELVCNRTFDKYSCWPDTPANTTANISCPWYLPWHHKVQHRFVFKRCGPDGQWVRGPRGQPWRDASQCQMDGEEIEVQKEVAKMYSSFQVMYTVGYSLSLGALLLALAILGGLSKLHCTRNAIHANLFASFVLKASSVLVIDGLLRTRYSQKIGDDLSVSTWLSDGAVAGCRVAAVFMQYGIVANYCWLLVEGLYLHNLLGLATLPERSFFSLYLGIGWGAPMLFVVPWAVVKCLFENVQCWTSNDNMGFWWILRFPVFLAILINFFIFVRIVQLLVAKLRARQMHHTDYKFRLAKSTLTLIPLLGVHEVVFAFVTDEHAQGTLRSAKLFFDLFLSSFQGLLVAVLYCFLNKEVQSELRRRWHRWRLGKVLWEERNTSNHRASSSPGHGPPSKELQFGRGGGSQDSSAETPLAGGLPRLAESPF

| SMILES | EC50 [1] [nM] | EC50 [2] [nM] | % Relative Potency Ratio [2] |
| --- | --- | --- | --- |
| CC(C)C[C@H](NC(=O)[C@H](Cc1c[nH]c2ccccc12)NC(=O)[C@H](CCC(N)=O)NC(=O)[C@@H](NC(=O)[C@H](Cc1ccccc1)NC(=O)[C@H](CC(=O)O)NC(=O)[C@H](CCC(N)=O)NC(=O)[C@H](C)NC(=O)[C@H](CCCNC(=N)N)NC(=O)[C@H](CCCCNC(=O)COCCOCCNC(=O)COCCOCCNC(=O)CC[C@H](NC(=O)CCCCCCCCCCCCCCCCC(=O)O)C(=O)O)NC(=O)[C@H](CO)NC(=O)[C@H](CC(=O)O)NC(=O)[C@H](CC(C)C)NC(=O)[C@](C)(Cc1ccccc1)NC(=O)[C@H](CCCCN)NC(=O)[C@H](CO)NC(=O)[C@@H](NC(=O)[C@H](CC(=O)O)NC(=O)[C@H](CO)NC(=O)[C@@H](NC(=O)[C@H](Cc1ccccc1)NC(=O)[C@@H](NC(=O)CNC(=O)[C@H](CCC(N)=O)NC(=O)C(C)(C)NC(=O)[C@@H](N)Cc1c[nH]cn1)[C@@H](C)O)[C@@H](C)O)C(C)C)C(C)C)C(=O)N[C@@H](CCC(=O)O)C(=O)NC(C)(C)C(=O)N[C@H](C(=O)O)[C@@H](C)O [Peptide 33] (H-H[Aib]QGTFTSDVSK[αMeF]LDSK([AEEA-AEEA-γGlu-C18 diacid])RAQDFVQWLE[Aib]T-OH) | 0.548 | 0.213 | 5.1 |
| CC(C)C[C@H](NC(=O)[C@H](Cc1c[nH]c2ccccc12)NC(=O)[C@H](CCC(N)=O)NC(=O)[C@@H](NC(=O)[C@H](Cc1ccccc1)NC(=O)[C@H](CC(=O)O)NC(=O)[C@H](CCC(N)=O)NC(=O)[C@H](C)NC(=O)[C@H](CCCNC(=N)N)NC(=O)[C@H](CCCCNC(=O)COCCOCCNC(=O)COCCOCCNC(=O)CC[C@H](NC(=O)CCCCCCCCCCCCCCCCC(=O)O)C(=O)O)NC(=O)[C@@H](NC(=O)[C@H](CC(=O)O)NC(=O)[C@H](CC(C)C)NC(=O)[C@](C)(Cc1ccccc1)NC(=O)[C@H](CCCCN)NC(=O)[C@H](CO)NC(=O)[C@@H](NC(=O)[C@H](CC(=O)O)NC(=O)[C@H](CO)NC(=O)[C@@H](NC(=O)[C@H](Cc1ccccc1)NC(=O)[C@@H](NC(=O)CNC(=O)[C@H](CCC(N)=O)NC(=O)C(C)(C)NC(=O)[C@@H](N)Cc1c[nH]cn1)[C@@H](C)O)[C@@H](C)O)C(C)C)[C@@H](C)O)C(C)C)C(=O)N[C@@H](CC(C)C)C(=O)NC(C)(C)C(=O)N[C@H](C(=O)O)[C@@H](C)O [Peptide 35] (H-H[Aib]QGTFTSDVSK[αMeF]LDTK([AEEA-AEEA-γGlu-C18 diacid])RAQDFVQWLL[Aib]T-OH; N-terminus assumed) | 0.335 | 0.0837 | 7.9 |
| CC(C)C[C@H](NC(=O)[C@H](Cc1c[nH]c2ccccc12)NC(=O)[C@H](CCC(N)=O)NC(=O)[C@@H](NC(=O)[C@H](Cc1ccccc1)NC(=O)[C@H](CC(=O)O)NC(=O)[C@H](CCC(=O)O)NC(=O)[C@H](C)NC(=O)[C@H](CCCNC(=N)N)NC(=O)[C@H](CCCCNC(=O)COCCOCCNC(=O)COCCOCCNC(=O)CC[C@H](NC(=O)CCCCCCCCCCCCCCCCC(=O)O)C(=O)O)NC(=O)[C@H](CO)NC(=O)[C@H](CC(=O)O)NC(=O)[C@H](CC(C)C)NC(=O)[C@](C)(Cc1ccccc1)NC(=O)[C@H](CCCCN)NC(=O)[C@H](CO)NC(=O)[C@@H](NC(=O)[C@H](CC(=O)O)NC(=O)[C@H](CO)NC(=O)[C@@H](NC(=O)[C@H](Cc1ccccc1)NC(=O)[C@@H](NC(=O)CNC(=O)[C@H](CCC(N)=O)NC(=O)C(C)(C)NC(=O)[C@@H](N)Cc1c[nH]cn1)[C@@H](C)O)[C@@H](C)O)C(C)C)C(C)C)C(=O)N[C@@H](CC(C)C)C(=O)NC(C)(C)C(=O)N[C@H](C(=O)O)[C@@H](C)O [Peptide 37] (H-H[Aib]QGTFTSDVSK[αMeF]LDSK([AEEA-AEEA-γGlu-C18 diacid])RAEDFVQWLL[Aib]T-OH) | 2.75 | 0.0686 | 79.2 |
| CC(C)C[C@H](NC(=O)[C@H](Cc1c[nH]c2ccccc12)NC(=O)[C@H](CCC(=O)O)NC(=O)[C@@H](NC(=O)[C@H](Cc1ccccc1)NC(=O)[C@H](CC(=O)O)NC(=O)[C@H](CCC(N)=O)NC(=O)[C@H](C)NC(=O)[C@H](CCCNC(=N)N)NC(=O)[C@H](CCCCNC(=O)COCCOCCNC(=O)COCCOCCNC(=O)CC[C@H](NC(=O)CCCCCCCCCCCCCCCCC(=O)O)C(=O)O)NC(=O)[C@H](CO)NC(=O)[C@H](CC(=O)O)NC(=O)[C@H](CC(C)C)NC(=O)[C@](C)(Cc1ccccc1)NC(=O)[C@H](CCCCN)NC(=O)[C@H](CO)NC(=O)[C@@H](NC(=O)[C@H](CC(=O)O)NC(=O)[C@H](CO)NC(=O)[C@@H](NC(=O)[C@H](Cc1ccccc1)NC(=O)[C@@H](NC(=O)CNC(=O)[C@H](CCC(N)=O)NC(=O)C(C)(C)NC(=O)[C@@H](N)Cc1c[nH]cn1)[C@@H](C)O)[C@@H](C)O)C(C)C)C(C)C)C(=O)N[C@@H](CC(C)C)C(=O)NC(C)(C)C(=O)N[C@H](C(=O)O)[C@@H](C)O [Peptide 38] (H-H[Aib]QGTFTSDVSK[αMeF]LDSK([AEEA-AEEA-γGlu-C18 diacid])RAQDFVEWLL[Aib]T-OH; N-terminus assumed) | 0.441 | 0.0756 | 11.6 |

These reach a lower EC50 [1]. Values come first.

| EC50 [1] [nM] | EC50 [2] [nM] | % Relative Potency Ratio [2] | SMILES |
| --- | --- | --- | --- |
| 0.161 | 0.0824 | 3.9 | CC(C)C[C@H](NC(=O)[C@H](Cc1c[nH]c2ccccc12)NC(=O)[C@H](CCC(N)=O)NC(=O)[C@@H](NC(=O)[C@H](Cc1ccccc1)NC(=O)[C@H](CC(=O)O)NC(=O)[C@H](CCC(N)=O)NC(=O)[C@H](C)NC(=O)[C@H](CCCNC(=N)N)NC(=O)[C@H](CCCCNC(=O)COCCOCCNC(=O)COCCOCCNC(=O)CC[C@H](NC(=O)CCCCCCCCCCCCCCCCC(=O)O)C(=O)O)NC(=O)[C@H](CO)NC(=O)[C@H](CC(=O)O)NC(=O)[C@H](CC(C)C)NC(=O)[C@](C)(Cc1ccccc1)NC(=O)[C@H](CCCCN)NC(=O)[C@H](CO)NC(=O)[C@@H](NC(=O)[C@H](CC(=O)O)NC(=O)[C@H](CO)NC(=O)[C@@H](NC(=O)[C@H](Cc1ccccc1)NC(=O)[C@@H](NC(=O)CNC(=O)[C@H](CCC(N)=O)NC(=O)C(C)(C)NC(=O)[C@@H](N)Cc1c[nH]cn1)[C@@H](C)O)[C@@H](C)O)C(C)C)C(C)C)C(=O)N[C@@H](CC(C)C)C(=O)NC(C)(C)C(=O)N[C@@H](CCC(=O)O)C(=O)O [Peptide 34] (H-H[Aib]QGTFTSDVSK[αMeF]LDSK([AEEA-AEEA-γGlu-C18 diacid])RAQDFVQWLL[Aib]E-OH; N-terminus assumed) |
| 0.278 | 0.0431 | 12.8 | CC(C)C[C@H](NC(=O)[C@H](Cc1c[nH]c2ccccc12)NC(=O)[C@H](CCC(N)=O)NC(=O)[C@@H](NC(=O)[C@H](Cc1ccccc1)NC(=O)[C@H](CC(=O)O)NC(=O)[C@H](CCCNC(=N)N)NC(=O)[C@H](C)NC(=O)[C@H](CCCNC(=N)N)NC(=O)[C@H](CCCCNC(=O)COCCOCCNC(=O)COCCOCCNC(=O)CC[C@H](NC(=O)CCCCCCCCCCCCCCCCC(=O)O)C(=O)O)NC(=O)[C@H](CO)NC(=O)[C@H](CC(=O)O)NC(=O)[C@H](CC(C)C)NC(=O)[C@](C)(Cc1ccccc1)NC(=O)[C@H](CCCCN)NC(=O)[C@H](CO)NC(=O)[C@@H](NC(=O)[C@H](CC(=O)O)NC(=O)[C@H](CO)NC(=O)[C@@H](NC(=O)[C@H](Cc1ccccc1)NC(=O)[C@@H](NC(=O)CNC(=O)[C@H](CCC(N)=O)NC(=O)C(C)(C)NC(=O)[C@@H](N)Cc1c[nH]cn1)[C@@H](C)O)[C@@H](C)O)C(C)C)C(C)C)C(=O)N[C@@H](CC(C)C)C(=O)NC(C)(C)C(=O)N[C@H](C(=O)O)[C@@H](C)O [Peptide 36] (H-H[Aib]QGTFTSDVSK[αMeF]LDSK([AEEA-AEEA-γGlu-C18 diacid])RARDFVQWLL[Aib]T-OH; N-terminus assumed) |
| 0.194 | 0.0761 | 5.0 | CC(C)C[C@H](NC(=O)[C@H](Cc1c[nH]c2ccccc12)NC(=O)[C@H](CCCNC(=N)N)NC(=O)[C@@H](NC(=O)[C@H](Cc1ccccc1)NC(=O)[C@H](CC(=O)O)NC(=O)[C@H](CCC(N)=O)NC(=O)[C@H](C)NC(=O)[C@H](CCCNC(=N)N)NC(=O)[C@H](CCCCNC(=O)COCCOCCNC(=O)COCCOCCNC(=O)CC[C@H](NC(=O)CCCCCCCCCCCCCCCCC(=O)O)C(=O)O)NC(=O)[C@H](CO)NC(=O)[C@H](CC(=O)O)NC(=O)[C@H](CC(C)C)NC(=O)[C@](C)(Cc1ccccc1)NC(=O)[C@H](CCCCN)NC(=O)[C@H](CO)NC(=O)[C@@H](NC(=O)[C@H](CC(=O)O)NC(=O)[C@H](CO)NC(=O)[C@@H](NC(=O)[C@H](Cc1ccccc1)NC(=O)[C@@H](NC(=O)CNC(=O)[C@H](CCC(N)=O)NC(=O)C(C)(C)NC(=O)[C@@H](N)Cc1c[nH]cn1)[C@@H](C)O)[C@@H](C)O)C(C)C)C(C)C)C(=O)N[C@@H](CC(C)C)C(=O)NC(C)(C)C(=O)N[C@H](C(=O)N[C@@H](CCC(=O)O)C(=O)O)[C@@H](C)O [Peptide 39] (H-H[Aib]QGTFTSDVSK[αMeF]LDSK([AEEA-AEEA-γGlu-C18 diacid])RAQDFVRWLL[Aib]TE-OH; N-terminus assumed) |
